Test results published in publication PMC6522912, “Evaluation of the published kinase inhibitor set to identify multiple inhibitors of bacterial ATP-dependent mur ligases” (Journal of Enzyme Inhibition and Medicinal Chemistry, 2019).
Where two headings read alike, the source gives them in different places.

How the values were obtained:
E. coli MurC = E. coli MurC (Escherichia coli, UniProt P17952); experiment: Malachite green inhibition assay, MurC; format: biochemical; conditions: for remaining activity at 100 µM: 0.25 h, read-out: RA [%] at 100 µM MurC
Experimental: (§1) Inhibition of the Mur ligases was determined using the malachite green assay, with slight modifications.
(§2) In all cases, the final concentration of DMSO was 5% (v/v). After incubation for 15 min at 37 °C, the enzyme reaction was terminated by addition of 100 µM Biomol green reagent, and the absorbance was measured at 650 nm after 5 min. All of the experiments were run in duplicate. Residual activities were calculated with respect to control assays without the tested compounds, but with the 5% DMSO carrier.
(§3) The published kinase inhibitor set compounds were evaluated for inhibition of MurC, D and F ligases from E. coli using the Malachite green assay, which detects orthophosphate generated during enzymatic reactions. To avoid non-specific inhibition due to aggregate formation, all of the compounds were tested in the presence of detergent (0.005% Triton-X114). The data are presented as the residual activities of these Mur ligases in the presence of 100 µM of each test compound (Supporting Information Table S1). […] Additionally, regarding the data of profiled compounds in large panels of human kinase assays[41]

E. coli MurD = E. coli MurD (Escherichia coli, UniProt P14900); experiment: biochemical; conditions: for remaining activity at 100 µM: 0.25 h, Table S1, PKIS screening, read-out: RA [%] at 100 µM MurD
Experimental: as §1, §2
The published kinase inhibitor set compounds were evaluated for inhibition of MurC, D and F ligases from E. coli using the Malachite green assay, which detects orthophosphate generated during enzymatic reactions. To avoid non-specific inhibition due to aggregate formation, all of the compounds were tested in the presence of detergent (0.005% Triton-X114). The data are presented as the residual activities of these Mur ligases in the presence of 100 µM of each test compound (Supporting Information Table S1).

E. coli MurF = E. coli MurF (Escherichia coli, UniProt P11880); experiment: biochemical; conditions: for remaining activity at 100 µM: 0.25 h, read-out: RA [%] at 100 µM MurF
Experimental: as §1, §2, §3

Chain of E. coli MurF (P11880 whole entry): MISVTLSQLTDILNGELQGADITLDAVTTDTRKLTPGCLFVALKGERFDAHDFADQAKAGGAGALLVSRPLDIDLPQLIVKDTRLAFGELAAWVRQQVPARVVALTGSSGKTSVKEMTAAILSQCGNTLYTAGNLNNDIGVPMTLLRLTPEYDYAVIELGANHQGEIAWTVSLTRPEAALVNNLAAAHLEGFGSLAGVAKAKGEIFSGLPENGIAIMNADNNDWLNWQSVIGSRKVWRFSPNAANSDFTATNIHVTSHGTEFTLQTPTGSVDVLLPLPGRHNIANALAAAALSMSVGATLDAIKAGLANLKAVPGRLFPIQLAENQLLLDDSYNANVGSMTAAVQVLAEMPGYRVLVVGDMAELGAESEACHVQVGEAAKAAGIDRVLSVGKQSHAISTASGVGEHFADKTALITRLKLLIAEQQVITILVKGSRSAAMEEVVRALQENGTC
Chain of E. coli MurD (P14900 whole entry): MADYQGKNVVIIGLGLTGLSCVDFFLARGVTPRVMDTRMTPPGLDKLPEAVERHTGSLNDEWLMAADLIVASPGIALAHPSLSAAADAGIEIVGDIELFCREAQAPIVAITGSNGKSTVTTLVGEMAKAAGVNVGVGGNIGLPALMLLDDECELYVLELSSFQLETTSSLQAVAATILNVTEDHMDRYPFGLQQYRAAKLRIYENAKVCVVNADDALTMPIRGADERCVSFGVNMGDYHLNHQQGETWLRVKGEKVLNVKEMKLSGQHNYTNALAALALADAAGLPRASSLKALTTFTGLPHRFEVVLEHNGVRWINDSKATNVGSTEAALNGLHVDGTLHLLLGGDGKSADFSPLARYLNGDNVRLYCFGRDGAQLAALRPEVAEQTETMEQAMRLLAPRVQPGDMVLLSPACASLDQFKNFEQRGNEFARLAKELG
Chain of E. coli MurC (P17952 whole entry): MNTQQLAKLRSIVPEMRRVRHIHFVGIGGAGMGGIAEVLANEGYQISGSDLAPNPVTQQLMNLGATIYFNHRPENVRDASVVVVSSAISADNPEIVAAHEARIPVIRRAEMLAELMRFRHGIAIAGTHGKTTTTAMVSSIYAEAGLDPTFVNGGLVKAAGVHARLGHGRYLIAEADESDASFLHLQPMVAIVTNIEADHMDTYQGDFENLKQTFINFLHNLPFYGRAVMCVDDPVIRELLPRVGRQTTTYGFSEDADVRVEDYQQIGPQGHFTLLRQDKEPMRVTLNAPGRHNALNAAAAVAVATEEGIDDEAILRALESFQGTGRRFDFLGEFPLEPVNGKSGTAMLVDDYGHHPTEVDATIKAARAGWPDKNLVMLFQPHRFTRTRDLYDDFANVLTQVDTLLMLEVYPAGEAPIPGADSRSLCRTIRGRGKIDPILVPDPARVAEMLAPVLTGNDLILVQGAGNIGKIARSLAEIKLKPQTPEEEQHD

For `O=C1Nc2ccc(C(=O)c3ccco3)cc2C1=Cc1cc(Cl)c(O)c(Cl)c1` [GW406108X], the remaining activity at 100 µM (E. coli MurC; Table S1, PKIS screening) was 74%, the remaining activity at 100 µM (E. coli MurD) was 85% and the remaining activity at 100 µM (E. coli MurF; Table S1, PKIS screening) was 79%.

`COC(=O)c1cncc(/C=C/c2c(C)cc(O)cc2C)c1` [GW406731X] gave a remaining activity at 100 µM (E. coli MurC; Table S1, PKIS screening) of 98%, a remaining activity at 100 µM (E. coli MurD) of 69% and a remaining activity at 100 µM (E. coli MurF; Table S1, PKIS screening) of 81%.

In the case of `Nc1nc(-c2ccc3c(c2)C(=Cc2cc(Br)c(O)c(Br)c2)C(=O)N3)cs1` [GW407323A], the remaining activity at 100 µM (E. coli MurC; Table S1, PKIS screening) is reported as 64%, the remaining activity at 100 µM (E. coli MurD) is reported as 54% and the remaining activity at 100 µM (E. coli MurF; Table S1, PKIS screening) is reported as 41%.

With `COc1cc2ncnc(Nc3ccc(C)c(O)c3)c2cc1OC` [GW410563A] the remaining activity at 100 µM (E. coli MurC; Table S1, PKIS screening) was 60%, the remaining activity at 100 µM (E. coli MurD) was 92% and the remaining activity at 100 µM (E. coli MurF; Table S1, PKIS screening) was 100%.

With `CN(C)c1ccc2c(c1)/C(=C/Nc1ccc(S(N)(=O)=O)cc1)C(=O)N2` [GW416469X] the remaining activity at 100 µM (E. coli MurC; Table S1, PKIS screening) was 76%, the remaining activity at 100 µM (E. coli MurD) was 89% and the remaining activity at 100 µM (E. coli MurF; Table S1, PKIS screening) was 79%.

For `CC(C)COC(=O)c1ccc2c(c1)/C(=C/Nc1ccc(S(N)(=O)=O)cc1)C(=O)N2` [GW416981X], the remaining activity at 100 µM (E. coli MurC; Table S1, PKIS screening) was 60%, the remaining activity at 100 µM (E. coli MurD) was 100% and the remaining activity at 100 µM (E. coli MurF; Table S1, PKIS screening) was 67%.

`O=C1Nc2ccc(-c3cccnc3)cc2C1=Cc1cc(Br)c(O)c(Br)c1` [GW429374A] was tested, and the remaining activity at 100 µM (E. coli MurC; Table S1, PKIS screening) was 30%, the remaining activity at 100 µM (E. coli MurD) was 51% and the remaining activity at 100 µM (E. coli MurF; Table S1, PKIS screening) was 16%.

Work on `CNC(=O)Oc1cc(C)c(/C=C/c2cncc(C(=O)NC)c2)c(C)c1` [GW432441X] yielded a remaining activity at 100 µM (E. coli MurC) of 68%, a remaining activity at 100 µM (E. coli MurD) of 69% and a remaining activity at 100 µM (E. coli MurF) of 87%.

`Fc1ccc(-c2nn3ccccc3c2-c2ccncc2)cc1` [GW434756X] showed a remaining activity at 100 µM (E. coli MurC; Table S1, PKIS screening) of 74%, a remaining activity at 100 µM (E. coli MurD) of 68% and a remaining activity at 100 µM (E. coli MurF; Table S1, PKIS screening) of 94%.

In the case of `Cc1cc(O)cc(C)c1/C=C/c1cncc(C(N)=O)c1` [GW435821X], the remaining activity at 100 µM (E. coli MurC; Table S1, PKIS screening) is reported as 89%, the remaining activity at 100 µM (E. coli MurD) is reported as 89% and the remaining activity at 100 µM (E. coli MurF; Table S1, PKIS screening) is reported as 75%.

`Cc1cc(O)cc(C)c1/C=C/c1cncc(C(=O)OC(C)(C)C)c1` [GW439255X] was tested, and the remaining activity at 100 µM (E. coli MurC; Table S1, PKIS screening) was 75%, the remaining activity at 100 µM (E. coli MurD) was 96% and the remaining activity at 100 µM (E. coli MurF; Table S1, PKIS screening) was 69%.

In the case of `Cc1ccc(O)cc1Nc1ccnc2cc(-c3ccccn3)ccc12` [GW440139B], the “RA [%] at 100 µM MurC” value (E. coli MurC; Table S1, PKIS screening) is reported as 73%, the “RA [%] at 100 µM MurD” value (E. coli MurD) is reported as 73 and the “RA [%] at 100 µM MurF” value (E. coli MurF; Table S1, PKIS screening) is reported as 66%.

Work on `Cn1cc(C=C2C(=O)Nc3cccnc32)c2ccccc21` [GW441756X] yielded a remaining activity at 100 µM (E. coli MurC; Table S1, PKIS screening) of 75%, a remaining activity at 100 µM (E. coli MurD) of 99% and a remaining activity at 100 µM (E. coli MurF; Table S1, PKIS screening) of 89%.

For `Cc1cc(O)cc(C)c1/C=C/c1cncc(-c2nn[nH]n2)c1` [GW441806A], the remaining activity at 100 µM (E. coli MurC; Table S1, PKIS screening) was 70%, the remaining activity at 100 µM (E. coli MurD) was 91% and the remaining activity at 100 µM (E. coli MurF; Table S1, PKIS screening) was 90%.

`COc1ccccc1-c1cc(/C=C2\C(=O)Nc3ncc(Br)cc32)cc(Br)c1O` [GW442130X] showed a remaining activity at 100 µM (E. coli MurC; Table S1, PKIS screening) of 100%, a remaining activity at 100 µM (E. coli MurD) of 84% and a remaining activity at 100 µM (E. coli MurF; Table S1, PKIS screening) of 67%.

For `CNC(=O)c1cncc(/C=C/c2c(C)cccc2C)c1` [GW445012X], the remaining activity at 100 µM (E. coli MurC; Table S1, PKIS screening) was 85%, the remaining activity at 100 µM (E. coli MurD) was 83% and the remaining activity at 100 µM (E. coli MurF; Table S1, PKIS screening) was 54%.

For `CNC(=O)c1cncc(/C=C/c2c(Cl)cccc2Cl)c1` [GW445014X], the remaining activity at 100 µM (E. coli MurC; Table S1, PKIS screening) was 81%, the remaining activity at 100 µM (E. coli MurD) was 80% and the remaining activity at 100 µM (E. coli MurF; Table S1, PKIS screening) was 77%.

In the case of `CNC(=O)c1cncc(/C=C/c2ccccc2C)c1` [GW445015X], the remaining activity at 100 µM (E. coli MurC; Table S1, PKIS screening) is reported as 100%, the remaining activity at 100 µM (E. coli MurD) is reported as 91% and the remaining activity at 100 µM (E. coli MurF; Table S1, PKIS screening) is reported as 85%.

`CNC(=O)c1cncc(/C=C/c2ccccc2Cl)c1` [GW445017X] gave a remaining activity at 100 µM (E. coli MurC; Table S1, PKIS screening) of 68%, a remaining activity at 100 µM (E. coli MurD) of 87% and a remaining activity at 100 µM (E. coli MurF; Table S1, PKIS screening) of 90%.

In the case of `CCc1cccc(CC)c1/C=C/c1cncc(C(=O)NC)c1` [GW450241X], the remaining activity at 100 µM (E. coli MurC; Table S1, PKIS screening) is reported as 67%, the remaining activity at 100 µM (E. coli MurD) is reported as 74% and the remaining activity at 100 µM (E. coli MurF; Table S1, PKIS screening) is reported as 76%.

With `CS(=O)(=O)CCNCc1ccc(-c2ccc3ncnc(Nc4ccc(OCc5ccccc5)cc4)c3c2)o1` [GW458787A] the remaining activity at 100 µM (E. coli MurC; Table S1, PKIS screening) was 68%, the remaining activity at 100 µM (E. coli MurD) was 58% and the remaining activity at 100 µM (E. coli MurF; Table S1, PKIS screening) was 66%.

With `Cc1cc(-c2ccccn2)cc(C)c1/C=C/c1cncc(-c2nn[nH]n2)c1` [GW459057A] the remaining activity at 100 µM (E. coli MurC; Table S1, PKIS screening) was 59%, the remaining activity at 100 µM (E. coli MurD) was 83% and the remaining activity at 100 µM (E. coli MurF; Table S1, PKIS screening) was 76%.
